Key:
Type in all cases: in vivo
[1] = system: Johnsongrass (Sorghum halepense, SORHA); assay: Pre-emerge greenhouse herbicide test, phytotoxicity rating; details: 14 days after application, rating scale 0-100
Outline: (§1)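 Seeds sown in sandy loam mix one day before track-sprayer application of compounds in acetone at 125–1000 g ai/ha (187 l/ha), then surface-watered to incorporate and bottom-watered. Visual rating 14 days after application on a 0–100 scale (0 = no damage, 100 = all plants dead).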

[2] = system: barnyardgrass (Echinochloa crusgalli, ECHCG); assay: as above; details: 14 days after application, rating scale 0-100
Outline: as §1

[3] = system: common ragweed (Ambrosia artemisiifolia L., AMBEL); assay: as above; details: 14 days after application, rating scale 0-100
Outline: as §1

[4] = system: green foxtail (Setaria viridis, SETVI); assay: as above; details: 14 days after application, rating scale 0-100
Outline: as §1

[5] = system: ivyleaf morningglory (Ipomoea hederacea, IPOHE); assay: as above; details: 14 days after application, rating scale 0-100
Outline: as §1

[6] = system: lambsquarters (Chenopodium album, CHEAL); assay: as above; details: 14 days after application, rating scale 0-100
Outline: as §1

[7] = system: large crabgrass (Digitaria sanguinalis, DIGSA); assay: as above; details: 14 days after application, rating scale 0-100
Outline: as §1

[8] = system: redroot pigweed (Amaranthus retroflexus, AMARE); assay: as above; details: 14 days after application, rating scale 0-100
Outline: as §1

[9] = system: sicklepod (Cassia obtusifolia, CASOB); assay: as above; details: 14 days after application, rating scale 0-100
Outline: as §1

[10] = system: velvetleaf (Abutilon theophrasti, ABUTH); assay: as above; details: 14 days after application, rating scale 0-100
Outline: as §1

[11] = system: field corn (Zea mays L., var. Dekalb 535, CORN); assay: Pre-emerge greenhouse test, crop damage rating; details: 14 days after application, rating scale 0-100
Outline: as §1

[12] = system: upland rice (Oryza sp., var.Tebonnet, RICE); assay: Pre-emerge greenhouse test, crop damage rating; details: 14 days after application, rating scale 0-100
Outline: as §1

[13] = system: soybean (Glycine max L., var. Pella 86, SOY); assay: Pre-emerge greenhouse test, crop damage rating; set-up: key to SOY crop damage rating: 0 = no damage, 100 = complete death of all plants; details: 14 days after application, rating scale 0-100
Outline: as §1

[14] = system: common ragweed (Ambrosia artemisiifolia L., AMBEL); assay: Post-emerge greenhouse herbicide test, phytotoxicity rating; details: 14 days after application
Outline: (§2)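 Compounds in acetone with 0.25% v/v non-ionic surfactant were track-sprayed at 187 l/ha over plants at the 2-3 leaf stage, at 63 to 1000 g ai/ha. Pots were bottom-watered. Injury was scored visually 14 days later on a 0-100 scale, where 0 is no damage and 100 is complete plant death.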

[15] = system: Johnsongrass (Sorghum halepense, SORHA); assay: as above; details: 14 days after application
Outline: as §2

[16] = system: barnyardgrass (Echinochloa crusgalli, ECHCG); assay: as above; details: 14 days after application
Outline: as §2

[17] = system: green foxtail (Setaria viridis, SETVI); assay: as above; details: 14 days after application
Outline: as §2

[18] = system: ivyleaf morningglory (Ipomoea hederacea, IPOHE); assay: as above; details: 14 days after application
Outline: as §2

[19] = system: lambsquarters (Chenopodium album, CHEAL); assay: as above; details: 14 days after application
Outline: as §2

[20] = system: large crabgrass (Digitaria sanguinalis, DIGSA); assay: as above; details: 14 days after application
Outline: as §2

[21] = system: redroot pigweed (Amaranthus retroflexus, AMARE); assay: as above; details: 14 days after application
Outline: as §2

[22] = system: sicklepod (Cassia obtusifolia, CASOB); assay: as above; details: 14 days after application
Outline: as §2

[23] = system: velvetleaf (Abutilon theophrasti, ABUTH); assay: as above; details: 14 days after application
Outline: as §2

[24] = system: field corn (Zea mays L., var. Dekalb 535, CORN); assay: Post-emerge greenhouse test, crop damage rating; details: 14 days after application
Outline: as §2

[25] = system: upland rice (Oryza sp., var.Tebonnet, RICE); assay: Post-emerge greenhouse test, crop damage rating; details: 14 days after application
Outline: as §2

[26] = system: soybean (Glycine max L., var. Pella 86, SOY); assay: Post-emerge greenhouse test, crop damage rating; set-up: key to crop damage rating SOY: 0-100 scale: 0 = no damage, 100 = complete death of all plants; details: 14 days after application
Outline: as §2

In the case of `CC(=O)Nc1ccc(Oc2cc(-n3c(=O)n4n(c3=S)CCCC4)c(F)cc2Cl)c(C(F)(F)F)c1` [Compound 8-16], the “phytotoxicity rating SORHA” value ([1]; 125 g ai/ha) is reported as 0, the SORHA phytotoxicity rating ([1]; Rate 500 g al/ha) is reported as 10 and the “phytotoxicity rating ECHCG” value ([2]; 125 g ai/ha) is reported as 0. For the same compound, the ECHCG phytotoxicity rating ([2]; Rate 500 g al/ha) was 0, the “phytotoxicity rating AMBEL” value ([3]; 125 g ai/ha) was 40 and the AMBEL phytotoxicity rating ([3]; Rate 500 g al/ha) was 100. For the same compound, the “phytotoxicity rating SETVI” value ([4]; 125 g ai/ha) was 0, the SETVI phytotoxicity rating ([4]; Rate 500 g al/ha) was 70 and the “phytotoxicity rating IPOHE” value ([5]; 125 g ai/ha) was 0. The IPOHE phytotoxicity rating ([5]; Rate 500 g al/ha) was 0, the “phytotoxicity rating CHEAL” value ([6]; 125 g ai/ha) was 100 and the CHEAL phytotoxicity rating ([6]; Rate 500 g al/ha) was 100. For the same compound, the “phytotoxicity rating DIGSA” value ([7]; 125 g ai/ha) was 0, the DIGSA phytotoxicity rating ([7]; Rate 500 g al/ha) was 30 and the “phytotoxicity rating AMARE” value ([8]; 125 g ai/ha) was 80. For the same compound, the AMARE phytotoxicity rating ([8]; Rate 500 g al/ha) was 90, the “phytotoxicity rating CASOB” value ([9]; 125 g ai/ha) was 0 and the CASOB phytotoxicity rating ([9]; Rate 500 g al/ha) was 0. For the same compound, the “phytotoxicity rating ABUTH” value ([10]; 125 g ai/ha) was 90, the ABUTH phytotoxicity rating ([10]; Rate 500 g al/ha) was 100 and the “crop damage rating CORN” value ([11]; 125 g ai/ha) was 0. For the same compound, the “CORN crop damage rating” value ([11]; Rate 500 g al/ha) was 0, the “crop damage rating RICE” value ([12]; 125 g ai/ha) was 0 and the “RICE crop damage rating” value ([12]; Rate 500 g al/ha) was 0. The “crop damage rating SOY” value ([13]; 125 g ai/ha) was 0, the “SOY crop damage rating” value ([13]; Rate 500 g al/ha) was 10 and the “AMBEL phytotoxicity rating (0-100)” value ([14]; 63 g al/ha) was 40. The “phytotoxicity rating AMBEL” value ([14]; rate 500 g ai/ha, scale 0-100) was 40, the “SORHA phytotoxicity rating (0-100)” value ([15]; 63 g al/ha) was 0 and the “phytotoxicity rating SORHA” value ([15]; rate 500 g ai/ha, scale 0-100) was 10. For the same compound, the “ECHCG phytotoxicity rating (0-100)” value ([16]; 63 g al/ha) was 0, the “phytotoxicity rating ECHCG” value ([16]; rate 500 g ai/ha, scale 0-100) was 0 and the “SETVI phytotoxicity rating (0-100)” value ([17]; 63 g al/ha) was 10. The “phytotoxicity rating SETVI” value ([17]; rate 500 g ai/ha, scale 0-100) was 30, the “IPOHE phytotoxicity rating (0-100)” value ([18]; 63 g al/ha) was 90 and the “phytotoxicity rating IPOHE” value ([18]; rate 500 g ai/ha, scale 0-100) was 75. For the same compound, the “CHEAL phytotoxicity rating (0-100)” value ([19]; 63 g al/ha) was 85, the “phytotoxicity rating CHEAL” value ([19]; rate 500 g ai/ha, scale 0-100) was 95 and the “DIGSA phytotoxicity rating (0-100)” value ([20]; 63 g al/ha) was 0. The “phytotoxicity rating DIGSA” value ([20]; rate 500 g ai/ha, scale 0-100) was 0, the “AMARE phytotoxicity rating (0-100)” value ([21]; 63 g al/ha) was 90 and the “phytotoxicity rating AMARE” value ([21]; rate 500 g ai/ha, scale 0-100) was 100. For the same compound, the “CASOB phytotoxicity rating (0-100)” value ([22]; 63 g al/ha) was 0, the “phytotoxicity rating CASOB” value ([22]; rate 500 g ai/ha, scale 0-100) was 70 and the “ABUTH phytotoxicity rating (0-100)” value ([23]; 63 g al/ha) was 80. For the same compound, the “phytotoxicity rating ABUTH” value ([23]; rate 500 g ai/ha, scale 0-100) was 100, the “CORN crop damage rating (0-100)” value ([24]; 63 g al/ha) was 0 and the “crop damage rating CORN” value ([24]; rate 500 g ai/ha, scale 0-100) was 5. For the same compound, the “RICE crop damage rating (0-100)” value ([25]; 63 g al/ha) was 0, the “crop damage rating RICE” value ([25]; rate 500 g ai/ha, scale 0-100) was 0 and the “SOY crop damage rating (0-100)” value ([26]; 63 g al/ha) was 10. The “crop damage rating SOY” value ([26]; rate 500 g ai/ha, scale 0-100) was 20.

From patent US6479435B1, “Diaryl ethers and processes for their preparation and herbicidal and desiccant compositions containing them” (ISK Americas Incorporated, priority 1997, dated 2002)
